# Target: T1, mCD1d (Mus musculus, UniProt P11609)
# T1 construct: host or cells: JAWS II (C57BL/6.Trp53-/- derived dendritic cell line)
# T1 sequence (P11609 22-336): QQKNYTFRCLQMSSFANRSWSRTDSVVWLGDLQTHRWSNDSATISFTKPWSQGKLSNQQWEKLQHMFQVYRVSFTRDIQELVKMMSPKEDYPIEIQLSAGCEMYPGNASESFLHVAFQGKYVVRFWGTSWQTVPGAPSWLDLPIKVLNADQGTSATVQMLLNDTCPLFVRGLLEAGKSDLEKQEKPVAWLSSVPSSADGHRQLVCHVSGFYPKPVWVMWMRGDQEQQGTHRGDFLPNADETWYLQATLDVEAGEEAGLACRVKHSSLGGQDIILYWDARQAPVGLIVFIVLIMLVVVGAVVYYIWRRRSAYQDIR
# T1 sequence (P01887 21-119 partner): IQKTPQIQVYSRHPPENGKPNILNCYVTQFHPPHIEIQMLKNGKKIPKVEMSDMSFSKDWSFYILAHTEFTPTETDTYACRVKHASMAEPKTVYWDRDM
# Experiment: mAb L363 surface staining of JAWS II cells by flow cytometry (kinetics and pulse-chase)
# Assay type: cell-based
# Conditions: JAWS II cells pulsed 500 nM for 1.5 hr, 8 hr chase
# Description: We studied this possibility directly by using a monoclonal antibody (L363) that specifically recognizes complexes of αGalCer bound to mCD1d ([Yu et al., 2007]). Mouse splenocytes were cultured with either αGalCer-C26:0 or representative Th2 cell-type cytokine-biasing analogs, and L363 staining was assessed on various cell types (Figure 3A). […] This was investigated further with more detailed kinetic studies in which immortalized mouse DC line JAWS II was cultured with each glycolipid and assessed for L363 surface staining at 0.5, 4, and 18 hr (Figure 3B). There was a striking correlation between rapid kinetics of glycolipid association with mCD1d and the ability to induce a Th2 cell-type cytokine response. […] In contrast, most analogs inducing Th2 cell-type cytokine responses gave strong L363 staining by 0.5 hr, which increased modestly or not at all with longer incubation. […] Experiments using responses of iNKT cells to analyze the kinetics of cell-surface appearance gave analogous results (Figure S5).
# Figure 3 Direct Analysis of Presentation of αGalCer Analogs with Complex-Specific mAb Staining (A) Mouse splenocytes cultured with either vehicle only (0.02% DMSO) or with the indicated αGalCer analogs (100 nM) were harvested after 1 hr or 19 hr of incubation and stained with mAb L363 or anti-CD1d mAb 1B1 and with mAbs specific for CD11c, CD19, and F4/80 (Figure S4). Filled histograms show L363 staining of cells cultured with vehicle only, and open histograms show cells cultured with indicated glycolipids. At the left, the total CD1d staining with mAb 1B1 (open histograms) compared to isotype control mAb (filled histograms) are shown on cells cultured for 19 hr with DMSO only. (B) JAWS II cells were incubated with glycolipids (250 nM) for various times ranging from 0.5–18 hr as indicated, stained with mAb L363, and analyzed by flow cytometry. Dashed line histograms show L363 staining of cells incubated with medium only, and bold histograms show L363 staining of cells incubated with αGalCer analogs. (C) JAWS II cells were pulsed with indicated αGalCer analogs (500 nM) for 1.5 hr, washed extensively, and recultured at 37°C for various chase times. Upon harvesting, cells were placed on ice and subsequently stained with mAb L363 for flow cytometry analysis. Histogram overlays show L363 staining of cells pulsed initially with vehicle only (DMSO, dashed histograms) or with αGalCer analog (bold histograms). […] All results shown (A, B, and C) were representative of at least two independent experiments.
# Recombinant CD1d proteins were produced and assembled into tetramers for staining as previously described ([Forestier et al., 2007]). To obtain optimally loaded tetramers for iNKT cell staining, we loaded mCD1d with αGalCer-C26:0 and -C24:0 in the presence of 0.05% Triton X-100 (Sigma-Aldrich) and loaded mCD1d with other glycolipids without Triton X-100. For loading of hCD1d, 0.05% Triton X-100 was included with αGalCer-C26:0, -C24:0, and -C20:4, whereas other glycolipids were loaded without Triton X-100. For surface staining of αGalCer/mCD1d complexes, murine splenocytes or JAWS II cells were incubated with 250 nM glycolipids for various times and then 0.2 μg/ml mAb L363 (Alexa Fluor 647 or biotin conjugated) was added directly to the culture for an additional 30 min at RT. In some experiments, additional fluorochrome-conjugated antibodies specific for leukocyte subpopulations were added for the last 15 min of incubation. All samples were analyzed with the FACSCalibur flow cytometer (BD Biosciences).
row,Structure (SMILES),formation of mCD1d-αGalCer surface complexes in pulse-chase analysis
1,CCCCCCCCCCCCCCC(O)C(O)C(COC1OC(CO)C(O)C(O)C1O)NC(=O)CCCCCCCCC (stereo not drawn) [αGalCer-C10:0],the complexes formed rapidly and began declining immediately during the chase period
2,CCCCCC=CCC=CCCCCCCCCCC(=O)NC(COC1OC(CO)C(O)C(O)C1O)C(O)C(O)CCCCCCCCCCCCCC (stereo not drawn) [αGalCer-C20:2],the complexes formed rapidly and began declining immediately during the chase period
3,"CCCCCCCCCCCCCCCCCCCCCCCCCC(=O)NC(COC1OC(CO)C(O)C(O)C1O)C(O)C(O)CCCCCCCCCCCCCC (stereo not drawn) [αGalCer-C26:0, reference compound]",formed slowly

# Same assay, conditions: JAWS II cells, 250 nM glycolipid, 0.5, 4 and 18 hr
row,Structure (SMILES),L363 surface staining over time
1,CCCCCCCCCCCCCCCCCCCCCCCC(=O)NC(COC1OC(CO)C(O)C(O)C1O)C(O)C(O)CCCCC (stereo not drawn) [OCH],very weak L363 reactivity
2,CCCCCCCCCCCCCCCCCCCCCCCC(=O)NC(COC1OC(CO)C(O)C(O)C1O)C(O)C(O)CCCCCCCCCCCCCC (stereo not drawn) [αGalCer-C24:0],strong L363 staining was detected only at 18 hr
3,"CCCCCCCCCCCCCCCCCCCCCCCCCC(=O)NC(COC1OC(CO)C(O)C(O)C1O)C(O)C(O)CCCCCCCCCCCCCC (stereo not drawn) [αGalCer-C26:0, reference compound]",strong L363 staining was detected only at 18 hr
